Among the data in US6476030B1, “Pyrazolo-triazine derivatives as ligands for GABA receptors” (Merck Sharp & Dohme Ltd., priority 1998, dated 2002) are melting point values, retold here.

SMILES strings stand for the structures.

The melting point is the temperature of the solid-liquid transition. The compound `Fc1ccccc1-c1c(OCc2nc3n(n2)CCCC3)nn2c(-c3ccccc3F)nncc12` [Example 83, 3,7-bis(2-Fluorophenyl)-2-(5,6,7,8-tetrahydro[1,2,4]triazolo[1,5-a]pyridin-2-ylmethoxy)pyrazolo[1,5-d][1,2,4]triazine] registered a melting point of 150 to 152 °C.
Compound `Fc1ccccc1-c1c(OCc2ncnn2CC(F)F)nn2c(-c3ccccc3F)nncc12` [Example 85, 2-[2-(2,2-Difluoroethyl)-2H-[1,2,4]triazol-3-ylmethoxy]-3,7-bis(2-fluorophenyl)pyrazolo[1,5-d][1,2,4]triazine] returned a melting point of 179 to 180 °C.
With `FCCn1ncnc1COc1nn2c(-c3ccccc3F)nncc2c1-c1ccccc1F` [Example 86, 2-[2-(2-Fluoroethyl)-2H-[1,2,4]triazol-3-ylmethoxy]-3,7-bis(2-fluorophenyl)-pyrazolo[1,5-d][1,2,4]triazine] the figure was 172 to 173 °C; with `Cn1ncnc1COc1nn2c(-c3ccccc3Cl)nncc2c1-c1ccccc1F` [Example 88, 7-(2-Chlorophenyl)-3-(2-fluorophenyl)-2-(2-methyl-2H-[1,2,4]triazol-3-ylmethoxy)pyrazolo[1,5-d][1,2,4]triazine], 155 to 157 °C.
Regarding `Cn1ncnc1COc1nn2c(C3CC3)nncc2c1-c1ccccc1F` [Example 89, 7-Cyclopropyl-3-(2-fluorophenyl)-2-(2-methyl-2H-[1,2,4]triazol-3-ylmethoxy)pyrazolo[1,5-d][1,2,4]triazine], the melting point was 97 to 99 °C.
With `Cc1cc(COc2nn3c(-c4ccccc4F)nncc3c2-c2ccccc2F)nn1C` [Example 90, 3,7-bis(2-Fluorophenyl)-2-(1,5-dimethyl-1H-pyrazol-3-ylmethoxy)-pyrazolo[1,5-d][1,2,4]triazine] the figure was 183 °C; with `CCn1ncnc1COc1nn2c(-c3ccccc3F)nncc2c1-c1ccco1` [Example 91, 2-(2-Ethyl-2H-[1,2,4]triazol-3-ylmethoxy)-7-(2-fluorophenyl)-3-(furan-2-yl)pyrazolo[1,5-d][1,2,4]triazine], 182 to 183 °C.
Take `CCn1ncnc1COc1nn2c(-c3ccccc3F)nncc2c1-c1cccs1` [Example 92, 2-(2-Ethyl-2H-[1,2,4]triazol-3-ylmethoxy)-7-(2-fluorophenyl)-3-(thien-2-yl)pyrazolo[1,5-d][1,2,4]triazine]: the melting point lay in the range of 190 to 192 °C.
The compound `CCn1ncnc1COc1nn2c(-c3ccccc3F)nncc2c1-c1ccsc1` [Example 93, 2-(2-Ethyl-2H-[1,2,4]triazol-3-ylmethoxy)-7-(2-fluorophenyl)-3-(thien-3-yl)pyrazolo[1,5-d][1,2,4]triazine] gave a melting point of 187 to 193 °C.
`Cn1ncnc1COc1nn2c(-c3ccccc3F)nncc2c1-c1cccc(-c2cccnc2)c1` [Example 95, 7-(2-Fluorophenyl)-2-(2-methyl-2H-[1,2,4]triazol-3-ylmethoxy)-3-[3-(pyridin-3-yl)phenyl]pyrazolo[1,5-d][1,2,4]triazine] yielded a melting point of 157 to 163 °C.
As for `Cn1ncnc1COc1nn2c(-c3ccccc3F)nncc2c1I` [Example 96, 7-(2-Fluorophenyl)-3-iodo-2-(2-methyl-2H-[1,2,4]triazol-3-ylmethoxy)-pyrazolo[1,5-d][1,2,4]triazine], the melting point fell in the range of 218 to 219 °C.
`Cn1ncnc1COc1nn2c(-c3ccccc3F)nncc2c1-c1cccc(C#N)c1` [Example 97, 3-(3-Cyanophenyl)-7-(2-fluorophenyl)-2-(2-methyl-2H-[1,2,4]triazol-3-ylmethoxy)pyrazolo[1,5-d][1,2,4]triazine] gave a melting point of 194 to 196 °C.
